Structures can show the parent of a compound that is named as a salt. Where two headings read alike, the source gives them in different places.

In one assay the target is ErbB2 V777L (Homo sapiens (Human), UniProt P04626, V777L). Put plainly: ErbB enzyme assay (CisBio HTRF-KinEASE-TK), ErbB2 V777L. It counts as biochemical. As for the experimental part: In vitro enzyme assays based on CisBio HTRF-KinEASE-TK technology were used to determine compound potencies. […] After another 1 h incubation at ambient temperature, the extent of substrate phosphorylation was determined using a PerkinElmer EnVision multimode plate reader via time-resolved fluorescence dual wavelength detection. The percent of control (POC) was calculated using the ratio of emission at […] to the emission at 620 nm. One hundred POC was determined using DMSO only controls (no test compounds present) and zero POC was determined using pre-quenched controls reactions. A 4-parameter logistic equation was fit to the POC values as a function of the test compound concentration and the IC50 value was determined as the point where the curve crossed 50 POC.
A general note: Time-resolved FRET reads energy transfer from a long-lived donor to a nearby acceptor.

The next assay has as its target EGFR WT (Homo sapiens (Human), UniProt P00533). Briefly: ErbB enzyme assay (CisBio HTRF-KinEASE-TK), EGFR WT. Particulars: ATP at Km (25 μM), 1 h incubation. The class given is biochemical. In short, it runs like this: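 Three-fold DMSO serial dilutions were added to kinase reactions and incubated 1 h at room temperature. Quench used 62.5 nM Sa-XL665 plus 0.25×TK-Ab-Cryptate in detection buffer, followed by another 1 h. Substrate phosphorylation was then measured by dual-wavelength HTRF.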

Setting [1] is: ErbB2 V777L enzyme, ATP at Km (110 μM), 1 h incubation.

ErbB2 V777L, sequence (P04626 23-1255 V777L): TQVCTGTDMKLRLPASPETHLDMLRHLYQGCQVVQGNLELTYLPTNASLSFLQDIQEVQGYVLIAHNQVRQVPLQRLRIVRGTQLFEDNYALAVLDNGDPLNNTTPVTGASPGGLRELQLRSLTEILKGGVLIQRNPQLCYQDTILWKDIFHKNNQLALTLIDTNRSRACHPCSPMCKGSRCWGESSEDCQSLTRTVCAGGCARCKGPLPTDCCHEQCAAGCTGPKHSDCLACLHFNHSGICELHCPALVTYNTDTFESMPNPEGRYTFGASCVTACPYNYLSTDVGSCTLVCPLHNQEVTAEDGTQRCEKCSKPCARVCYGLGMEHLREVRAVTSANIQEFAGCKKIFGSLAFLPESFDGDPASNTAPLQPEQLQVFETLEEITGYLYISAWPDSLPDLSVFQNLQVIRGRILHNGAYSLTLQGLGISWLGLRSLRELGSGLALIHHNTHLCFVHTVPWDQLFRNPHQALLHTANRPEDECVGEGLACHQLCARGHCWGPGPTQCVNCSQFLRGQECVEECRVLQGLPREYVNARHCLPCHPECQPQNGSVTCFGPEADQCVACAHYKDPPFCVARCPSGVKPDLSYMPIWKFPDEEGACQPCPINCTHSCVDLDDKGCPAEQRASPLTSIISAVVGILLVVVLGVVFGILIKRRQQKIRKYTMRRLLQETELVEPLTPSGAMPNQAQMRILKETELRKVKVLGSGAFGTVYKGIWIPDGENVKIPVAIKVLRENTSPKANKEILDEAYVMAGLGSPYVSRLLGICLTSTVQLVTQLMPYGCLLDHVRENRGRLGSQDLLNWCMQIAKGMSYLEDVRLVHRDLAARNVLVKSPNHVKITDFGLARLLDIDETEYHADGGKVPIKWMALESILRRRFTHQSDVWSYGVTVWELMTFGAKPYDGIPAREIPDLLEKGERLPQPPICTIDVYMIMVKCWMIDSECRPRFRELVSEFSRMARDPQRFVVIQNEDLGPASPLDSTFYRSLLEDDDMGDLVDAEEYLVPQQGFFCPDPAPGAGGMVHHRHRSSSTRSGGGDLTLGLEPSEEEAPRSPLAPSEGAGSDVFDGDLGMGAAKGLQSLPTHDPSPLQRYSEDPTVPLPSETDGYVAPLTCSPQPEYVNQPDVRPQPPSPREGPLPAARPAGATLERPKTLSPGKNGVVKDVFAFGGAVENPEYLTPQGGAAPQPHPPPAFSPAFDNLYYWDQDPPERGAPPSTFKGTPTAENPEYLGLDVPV
EGFR WT, sequence (P00533 25-1210): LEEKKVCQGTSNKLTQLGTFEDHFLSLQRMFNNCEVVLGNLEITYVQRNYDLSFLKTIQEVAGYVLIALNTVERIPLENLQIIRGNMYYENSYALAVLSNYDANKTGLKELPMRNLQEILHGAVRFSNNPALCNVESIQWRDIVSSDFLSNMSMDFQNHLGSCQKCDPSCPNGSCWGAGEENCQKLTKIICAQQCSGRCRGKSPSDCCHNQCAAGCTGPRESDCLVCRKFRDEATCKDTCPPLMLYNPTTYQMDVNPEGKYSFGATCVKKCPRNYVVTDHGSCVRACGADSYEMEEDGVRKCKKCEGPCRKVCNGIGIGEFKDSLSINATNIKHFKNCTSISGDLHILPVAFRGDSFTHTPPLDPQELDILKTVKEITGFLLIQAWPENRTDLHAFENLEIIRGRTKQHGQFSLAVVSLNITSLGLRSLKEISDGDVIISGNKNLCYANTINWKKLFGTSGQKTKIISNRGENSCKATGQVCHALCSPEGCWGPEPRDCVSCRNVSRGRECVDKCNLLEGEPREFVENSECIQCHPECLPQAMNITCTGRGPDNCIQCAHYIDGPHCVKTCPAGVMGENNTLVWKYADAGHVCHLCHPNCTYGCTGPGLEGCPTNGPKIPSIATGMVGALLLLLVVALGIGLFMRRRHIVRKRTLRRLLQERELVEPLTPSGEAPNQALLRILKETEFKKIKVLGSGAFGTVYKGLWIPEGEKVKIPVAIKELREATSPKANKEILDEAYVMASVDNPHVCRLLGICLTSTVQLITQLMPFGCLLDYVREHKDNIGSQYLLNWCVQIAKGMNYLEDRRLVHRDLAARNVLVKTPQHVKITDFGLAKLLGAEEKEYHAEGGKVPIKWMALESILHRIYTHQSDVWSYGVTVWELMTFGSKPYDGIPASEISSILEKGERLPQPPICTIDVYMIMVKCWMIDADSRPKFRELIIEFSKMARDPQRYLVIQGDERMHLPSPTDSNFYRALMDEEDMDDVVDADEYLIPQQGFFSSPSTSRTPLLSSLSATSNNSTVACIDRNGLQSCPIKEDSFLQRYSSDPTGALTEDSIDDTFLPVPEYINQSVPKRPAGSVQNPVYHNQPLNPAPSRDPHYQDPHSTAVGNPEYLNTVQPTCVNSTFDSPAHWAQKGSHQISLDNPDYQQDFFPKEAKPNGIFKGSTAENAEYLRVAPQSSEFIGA

For the molecule `C=CC(=O)N1C2CCCC1CC(c1ccc3ncnc(Nc4ccc(Oc5ccc6c(c5)nnn6C)c(C)c4F)c3n1)C2` (stereo not shown) [Compound 402, 1-(3-(4-((2-fluoro-3-methyl-4-((1-methyl-1H-benzo[d][1,2,3]triazol-5-yl)oxy)phenyl)amino)pyrido[3,2-d]pyrimidin-6-yl)-9-azabicyclo[3.3.1]nonan-9-yl)prop-2-en-1-one trifluoroacetate], the IC50 against ErbB2 V777L and at EGFR WT was 100 to 500 nM each time. With `C=CC(=O)N(C)C1CN(c2ncc3ncnc(Nc4ccc(Oc5ccc6c(c5)nnn6C)c(C)c4F)c3n2)C1` [Compound 28, N-(1-(8-((2-fluoro-3-methyl-4-((1-methyl-1H-benzo[d][1,2,3]triazol-5-yl)oxy)phenyl)amino)pyrimido [5,4-d]pyrimidin-2-yl)azetidin-3-yl)-N-methylacrylamide], the IC50 against ErbB2 V777L and at EGFR WT was 100 to 500 nM throughout. With `C=CC(=O)N(C)C1CCN(c2ncc3ncnc(Nc4ccc(Oc5ccc6c(c5)nnn6C)c(C)c4F)c3n2)C1` (stereo not shown) [Compound 9, N-(1-(8-((2-fluoro-3-methyl-4-((1-methyl-1H-benzo[d][1,2,3]triazol-5-yl)oxy)phenyl)amino)pyrimido [5,4-d]pyrimidin-2-yl)pyrrolidin-3-y1)-N-methylacrylamide], the IC50 (in general, the point on the concentration scale where inhibition reaches its midpoint) lay in the range of 100 to 500 nM against ErbB2 V777L and 500 to 1000 nM on EGFR WT. Regarding `C=CC(=O)N(C)[C@H]1C[C@H](Oc2ncc3ncnc(Nc4ccc(Oc5ccc6c(c5)ncn6C)c(C)c4)c3n2)C1` [Compound 382, N-methyl-N-((1r,3r)-3-((8-((3-methyl-4-((1-methyl-1H-benzo[d]imidazol-5-yl)oxy)phenyl)amino)pyrimido[5,4-d]pyrimidin-2-yl)oxy)cyclobutyl)acrylamide], the IC50 is 50 to 100 nM at ErbB2 V777L and not below 1000 nM against EGFR WT. For `C=CC(=O)N1CCN(c2ccc3ncnc(Nc4ccc(Oc5ccc6c(c5)nnn6C)c(C)c4F)c3n2)C[C@H]1C` [Compound 246, (R)-1-(4-(4-((2-fluoro-3-methyl-4-((1-methyl-1H-benzo[d][1,2,3]triazol-5-yl)oxy)phenyl)amino)pyrido[3,2-d]pyrimidin-6-yl)-2-methylpiperazin-1-yl)prop-2-en-1-one], the figures for the IC50 against ErbB2 V777L and against EGFR WT were 50 to 100 nM and 100 to 500 nM, respectively. `C=CC(=O)N(C)CCOc1ncc2ncnc(Nc3ccc(Oc4ccc5c(c4)ncn5C)c(C)c3)c2n1` [Compound 384, N-methyl-N-(2-((8-((3-methyl-4-((1-methyl-1H-benzo[d]imidazol-5-yl)oxy)phenyl)amino)pyrimido[5,4-d]pyrimidin-2-yl)oxy)ethyl)acrylamide]: the IC50 is 50 to 100 nM against ErbB2 V777L and not below 1000 nM against EGFR WT. As for `C=CC(=O)N1CCN(c2ccc3ncnc(Nc4cc(F)c(Oc5ccc6c(c5)nnn6C)c(C)c4F)c3n2)CC1(C)C` [Compound 327, 1-(4-(4-((2,5-difluoro-3-methyl-4-((1-methyl-1H-benzo[d][1,2,3]triazol-5-yl)oxy)phenyl)amino)pyrido[3,2-d]pyrimidin-6-yl)-2,2-dimethylpiperazin-1-yl)prop-2-en-1-one], the IC50 at ErbB2 V777L and against EGFR WT was 100 to 500 nM in each case. `C=CC(=O)N1CCN(c2ccc3ncnc(Nc4ccc(Oc5ccc6c(c5)nnn6C)c(C)c4)c3n2)CC[C@@H]1C` [Compound 354, (S)-1-(7-methyl-4-(4-((3-methyl-4-((1-methyl-1H-benzo[d][1,2,3]triazol-5-yl)oxy)phenyl)amino)pyrido[3,2-d]pyrimidin-6-yl)-1,4-diazepan-1-yl)prop-2-en-1-one]: the IC50 at ErbB2 V777L was in the range of 100 to 500 nM; at EGFR WT, 500 to 1000 nM. As for `C=CC(=O)N1C2CC1CN(c1ncc3ncnc(Nc4ccc(Oc5ccc6c(c5)nnn6C)c(C)c4)c3n1)C2` [Compound 60, 1-(3-(8-((3-methyl-4-((1-methyl-1H-benzo[d][1,2,3]triazol-5-yl)oxy)phenyl)amino)pyrimido[5,4-d]pyrimidin-2-yl)-3,6-diazabicyclo[3.1.1]heptan-6-yl)prop-2-en-1-one], the IC50 against ErbB2 V777L is 50 to 100 nM; on EGFR WT, 100 to 500 nM.

For the molecule `C=CC(=O)N1CCN(c2ccc3ncnc(Nc4ccc(Oc5ccc6c(c5)nnn6C)c(C)c4)c3c2F)CC1` [Compound 104, 1-(4-(5-fluoro-4-((3-methyl-4-((1-methyl-1H-benzo[d][1,2,3]triazol-5-yl)oxy)phenyl)amino)quinazolin-6-yl)piperazin-1-yl)prop-2-en-1-one], the IC50 against ErbB2 V777L and against EGFR WT was 100 to 500 nM each time. With `C=CC(=O)N1CCC12CN(c1ncc3ncnc(Nc4ccc(Oc5ccc6c(c5)nnn6C)c(C)c4F)c3n1)C2` [Compound 67, 1-(6-(8-((2-fluoro-3-methyl-4-((1-methyl-1H-benzo[d][1,2,3]triazol-5-yl)oxy)phenyl)amino)pyrimido[5,4-d]pyrimidin-2-yl)-1,6-diazaspiro[3.3]heptan-1-yl)prop-2-en-1-one], the IC50 at ErbB2 V777L and at EGFR WT was 100 to 500 nM each time. For `Cc1cc(Nc2ncnc3cnc(N4CCN(C(=O)/C=C/CN(C)C)CC4)nc23)ccc1Oc1ccc2c(c1)nnn2C` [Compound 58, (E)-4-(dimethyl-amino)-1-(4-(8-((3-methyl-4-((1-methyl-1H-benzo[d][1,2,3]triazol-5-yl)oxy)phenyl)amino)pyrimido [5,4-d]pyrimidin-2-yl)piperazin-1-yl)but-2-en-1-one], the IC50 against ErbB2 V777L and on EGFR WT was 50 to 100 nM each time. As to `C=CC(=O)N1CCN(c2ncc3ncnc(Nc4ccc(Oc5ccc6c(c5)nnn6C)c(C)c4)c3n2)C[C@H]1C` [Compound 1, (R)-1-(2-methyl-4-(8-((3-methyl-4-((1-methyl-1H-benzo[d][1,2,3]triazol-5-yl)oxy)phenyl)amino)pyrimido[5,4-d]pyrimidin-2-yl)piperazin-1-yl)prop-2-en-1-one], the IC50 against ErbB2 V777L is 50 to 100 nM; against EGFR WT, 100 to 500 nM. For `Cc1c(Oc2ccc3c(c2)nnn3C)ccc(Nc2ncnc3ccc(N4CCN(C(=O)/C=C/CF)[C@H](C)C4)nc23)c1F` [Compound 360, (R,E)-4-fluoro-1-(4-(4-((2-fluoro-3-methyl-4-((1-methyl-1H-benzo[d][1,2,3]triazol-5-yl)oxy)phenyl)amino)pyrido[3,2-d]pyrimidin-6-yl)-2-methylpiperazin-1-yl)but-2-en-1-one], in that order: 50 to 100 nM and 100 to 500 nM.

Consider `C=CC(=O)N1C[C@H]2C[C@@H]1CN(c1ncc3ncnc(Nc4ccc(Oc5cc(F)c6c(c5)ncn6C)c(C)c4F)c3n1)C2` [Compound 167, 1-((1S,5R)-3-(8-((2-fluoro-4-((7-fluoro-1-methyl-1H-benzo[d]imidazol-5-y1)oxy)-3-methylphenyl)amino)pyrimido[5,4-d]pyrimidin-2-yl)-3,6-diazabicyclo[3.2.1]octan-6-yl)prop-2-en-1-one], for which the IC50 against ErbB2 V777L was 100 to 500 nM; at EGFR WT it was less than 50 nM. Consider `C=CC(=O)N[C@H]1CN(c2ccc3ncnc(Nc4ccc(Oc5ccc6c(c5)nnn6C)c(C)c4F)c3n2)CC[C@@H]1F` [Compound 296, N-((3S,4S)-4-fluoro-1-(4-((2-fluoro-3-methyl-4-((1-methyl-1H-benzo[d][1,2,3]triazol-5-yl)oxy)phenyl)amino)pyrido[3,2-d]pyrimidin-6-yl)piperidin-3-yl)acrylamide], for which the IC50 on ErbB2 V777L and on EGFR WT was 100 to 500 nM throughout.

With `C=CC(=O)N1CCCN(c2ccc3ncnc(Nc4ccc(Oc5ccc6c(c5)nnn6C)c(C)c4)c3n2)CC1` [Compound 353, 1-(4-(4-((3-methyl-4-((1-methyl-1H-benzo[d][1,2,3]triazol-5-yl)oxy)phenyl)amino)pyrido[3,2-d]pyrimidin-6-yl)-1,4-diazepan-1-yl)prop-2-en-1-one], on ErbB2 V777L (setting [1]), the IC50 is 100 to 500 nM. `C=CC(=O)N1CCN(c2ncc3ncnc(Nc4cc(C)c(Oc5cc(F)c6c(c5)nnn6C)cc4OC)c3n2)C[C@H]1C` [Compound 166, (R)-1-(4-(8-((4-((7-fluoro-1-methyl-1H-benzo[d][1,2,3]triazol-5-yl)oxy)-2-methoxy-5-methylphenyl)amino)pyrimido[5,4-d]pyrimidin-2-y1)-2-methylpiperazin-1-yl)prop-2-en-1-one] gave an IC50 against ErbB2 V777L (setting [1]) of 500 to 1000 nM. Consider `C=CC(=O)N1C2C=C(c3ccc4ncnc(Nc5cc(C)c(Oc6ccc7c(c6)nnn7C)cc5OC)c4n3)CC1CCC2` (stereo not shown) [Compound 413, 1-(3-(4-((2-methoxy-5-methyl-4-((1-methyl-1H-benzo[d][1,2,3]triazol-5-yl)oxy)phenyl)amino)pyrido[3,2-d]pyrimidin-6-yl)-9-azabicyclo[3.3.1]non-2-en-9-yl)prop-2-en-1-one trifluoroacetate], for which the IC50 against EGFR WT was not below 1000 nM. As to `C=CC(=O)N[C@@H]1CCN(c2ccc3ncnc(Nc4ccc(Oc5ccc6c(c5)nnn6C)c(C)c4F)c3n2)C[C@H]1F` [Compound 287, N-((3R,4R)-3-fluoro-1-(4-((2-fluoro-3-methyl-4-((1-methyl-1H-benzo[d][1,2,3]triazol-5-yl)oxy)phenyl)amino)pyrido[3,2-d]pyrimidin-6-yl)piperidin-4-yl)acrylamide], on EGFR WT, the IC50 is 100 to 500 nM. Still for that read-out and setting: the figure for `C=CC(=O)N1CCN(c2ccc3ncnc(Nc4cc(C)c(Oc5ccc6c(c5)nnn6C)cc4OC)c3n2)CC1` [Compound 79, 1-(4-(4-((2-methoxy-5-methyl-4-((1-methyl-1H-benzo[d][1,2,3]triazol-5-yl)oxy)phenyl)amino)pyrido[3,2-d]pyrimidin-6-yl)piperazin-1-yl)prop-2-en-1-one] is 100 to 500 nM.
